Data published in US10077295B2, “Glycoproteins having lipid mobilizing properties and therapeutic uses thereof” (Aston University, priority 2010, dated 2018).

What was measured:
[1] = test system: adipocytes, BAT; assay: Expression of ZAG, HSL, UCP in adipose tissue/adipocytes of mice (5 day ZAG study); type: in vivo, mouse; details: ERK inhibitor added with ZAG
Procedure: Western Blot Analysis. Freshly excised gastrocnemius muscles were washed in PBS and lysed in PHOSPHOSAFE™ Extraction Reagent for 5 min at room temperature followed by sonication at 4° C. The lysate was cleared by centrifugation at 18,000 g for 5 min at 4° C. and samples of cytosolic protein (5 μg) were resolved on 12% sodium dodecyl sulfate-polyacrylamide gel electrophoresis at 180V for approximately 1 h. This was followed by transference to 0.45 μm nitrocellulose membranes, which were then blocked with 5% Marvel in Tris-buffered saline, pH 7.5, at 4° C. overnight. Both primary and secondary antibodies were used at a dilution of 1:1000 except anti-myosin (1:250). Incubation was for 1 h at room temperature, and development was by ECL. Blots were scanned by a densitometer to quantify differences.
A 5 day study was performed where ZAG was administered at 35 μg per day i.v. on a daily basis for 5 days. At the end of the experiment tissues were removed and blotted, or functional assays were carried out with isolated adipocytes. […] When ep adipocytes were prepared and maintained in tissue culture (RPMI 1640+10% FCS) ZAG expression was maintained for a further 3 days, even though no ZAG was added to the culture medium (FIG. 6B). […] In fact, as discussed above, too much ZAG is more likely to lead to resistance rather than an increased response.

[2] = target: T1, β3-AR (Homo sapiens, UniProt P13945); assay: Cyclic AMP production in CHO-K1 cells transfected with β3-AR; type: cell-based; set-up: host or cells: CHO-K1; details: CHO β3-AR
T1 sequence (P13945 whole entry): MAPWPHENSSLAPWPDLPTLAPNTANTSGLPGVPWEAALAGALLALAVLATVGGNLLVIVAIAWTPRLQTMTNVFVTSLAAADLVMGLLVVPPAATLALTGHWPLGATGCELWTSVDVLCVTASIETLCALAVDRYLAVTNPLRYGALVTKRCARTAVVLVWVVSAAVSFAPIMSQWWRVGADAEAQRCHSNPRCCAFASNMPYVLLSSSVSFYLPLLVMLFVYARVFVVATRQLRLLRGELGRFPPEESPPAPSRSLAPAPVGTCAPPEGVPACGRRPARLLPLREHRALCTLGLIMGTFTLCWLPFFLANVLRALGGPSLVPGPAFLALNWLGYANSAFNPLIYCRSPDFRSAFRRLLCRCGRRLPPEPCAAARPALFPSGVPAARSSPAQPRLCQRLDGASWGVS
Procedure: (§1) Binding Studies and Cyclic AMP Determination. CHO-K1 cells transfected with the human β1- and β2-AR obtained from University of Nottingham, UK, while CHOK1 cells transfected with the β3-AR were obtained from Astra Zeneca, Macclesfield, Cheshire, UK. Gene expression was under the control of hygromycin, together with a β-gal reporter construct, selected for resistance to G418. They were maintained in DMEM supplemented with 2 mM glutamine, hygromycin B ([…]), G418 ([…]), and 10% FCS, under an atmosphere of 10% CO2 in air. To determine the effect of agonists on cyclic AMP production, cells were grown in 24-well plates containing 1 ml of nutrient medium.

[3] = test system: murine myotubes; assay: Murine myotubes subjected to high glucose: protein degradation, protein synthesis, ROS, pPKR; type: cell-based, mouse; details: 10 or 25 mM glucose; ZAG 25 μg/ml
Procedure: This utilizes murine myotubes subjected to high concentrations of glucose (10 or 25 mM). […] However the SR compound (i.e., SR59230A) can also act as a β-agonist, which it seemed to do in these experiments.
It has been shown that formation of reactive oxygen species (ROS) is important in protein degradation induced by high glucose load. […] High glucose also induces activation (phosphorylation) of PKR (FIG. 22A) and the subsequent phosphorylation of eIF2α (FIG. 22B) as is seen in skeletal muscle of ob/ob mice, which was also attenuated by ZAG.

[4] = target: T2, human β2-AR (Homo sapiens, UniProt P07550); assay: Cyclic AMP production in CHO-K1 cells transfected with β2-AR; type: cell-based; details: CHO β2-AR, SR59230A 10 μM
T2 construct: host or cells: CHO-K1
T2 sequence (P07550 whole entry): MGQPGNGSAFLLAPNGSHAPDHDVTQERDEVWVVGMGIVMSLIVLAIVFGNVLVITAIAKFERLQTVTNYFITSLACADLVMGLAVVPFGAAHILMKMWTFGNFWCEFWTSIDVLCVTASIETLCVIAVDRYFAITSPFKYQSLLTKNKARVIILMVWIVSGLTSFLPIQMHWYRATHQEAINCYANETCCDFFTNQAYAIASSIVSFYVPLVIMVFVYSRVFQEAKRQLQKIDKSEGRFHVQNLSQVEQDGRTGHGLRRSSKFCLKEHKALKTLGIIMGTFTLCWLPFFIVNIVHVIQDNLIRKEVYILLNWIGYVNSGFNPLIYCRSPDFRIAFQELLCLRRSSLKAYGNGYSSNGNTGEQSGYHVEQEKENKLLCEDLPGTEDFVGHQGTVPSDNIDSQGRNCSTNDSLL
Procedure: as §1

[5] = test system: rat epididymal adipocytes; assay: Lipolytic activity in rat adipocytes; type: cell-based; details: rat epididymal adipocytes
Procedure: Lipolytic Activity in Rat Adipocytes—White adipocytes were prepared from finely minced epididymal adipose tissue of male Wistar rats (400 g) using collagenase digestion, as described (Beck S A, et al. Production of lipolytic and proteolytic factors by a murine tumor-producing cachexia in the host. Cancer Res 47:5919-5923, 1987). Lipolytic activity was determined by incubating 10^5-2×10^5 adipocytes for 2 h in 1 ml Krebs-Ringer bicarbonate buffer, pH 7.2, and the extent of lipolysis was determined by measuring the glycerol released (Wieland O. Glycerol UV method. Methods of Enzymatic Analysis, edited by Bergmeyer H U. Academic Press, London, pp 1404-1409, 1974). Spontaneous glycerol release was measured by incubating adipocytes alone. Lipolytic activity was expressed as μmol glycerol released/10^5 adipocytes/2 h.

[6] = test system: ob/ob mice; assay: Oral (p.o.) administration of rhZAG to ob/ob mice; type: in vivo, mouse; details: 50 ug ZAG p.o. daily with propranolol
Procedure: 50 ug per day of rhZAG was administered p.o. to Aston ob/ob mice. Oral dosing was achieved by assuming 5 mL/day consumption of water, and adding ZAG to achieve 50 ug per day dose based on that assumption. No attempt was made to correct for variations of consumption on a given day.
Experiment One (8 Day Oral ZAG Study): 50 ug of ZAG was administered p.o. daily in drinking water.
Experiment Two (8 Day Oral ZAG Plus Propranolol Study): 50 ug of ZAG administered p.o. daily, with and without propranolol. Propanolol blocks all of the effects of ZAG including decrease in body weight and blood glucose in the tolerance test, also blocking the rise in body temperature and the rise in plasma mouse ZAG, confirming that this occurs through a beta adrenergic receptor. […] It appears to do this by preventing the rise in mouse ZAG in the serum after oral administration of the rhZAG.
Experiment Three (Oral Study): ZAG administered p.o. daily over an extended time frame, with a recovery group split from the treated group beginning at 30 days (data not shown).

[7] = test system: ob/ob mice; assay: ob/ob mice treated with ZAG i.v. with or without propanolol; type: in vivo, mouse; details: propanolol 40 mg kg−1 po daily
Procedure: Animals. […] Male mice (about 20 weeks of age) were grouped into three per cage and kept in an air conditioned room at 22±2° C., with ad libitum feeding of a rat and mouse breeding diet (Special Diet Services, Witham, UK) and tap water. Mice were administered ZAG (50 μg, i.v. in 100 μl PBS) or PBS daily with or without propanolol (40 mgkg^−1, po, daily) and body weight and food and water intake were determined, as well as urinary glucose excretion and body temperature, determined by the use of a rectal thermometer (RS Components, Northants, UK). A glucose tolerance test was performed on day 3. […] Blood samples were removed from the tail vein at 15, 30, 60 and 120 min after glucose administration and used for the measurements of glucose and insulin. At the end of the experiment the animals were terminated by cervical dislocation, tissues removed and rapidly frozen in liquid nitrogen, and maintained at −80° C.
To determine whether ZAG can increase insulin signalling the effect on Glut4 expression was determined.

[8] = target: T1, β3-AR; details: high affinity binding site; cited from earlier work

With COc1cccc(-c2cc(=O)c3ccccc3o2)c1N [PD98059, reference compound] the “effect on ZAG-induced expression of phospho HSL” value [1] was “completely attenuated”.

In the case of CCc1ccccc1OC[C@@H](O)CN[C@H]1CCCc2ccccc21 [SR59230A, reference compound], the “effect on isoprenaline-induced increase in cyclic AMP” value ([2]; SR59230A 10 μM) is reported as “attenuated”, the “effect on protein degradation stimulated by high glucose” value [3] is reported as “attenuated” and the “effect on isoprenaline-induced increase in cyclic AMP” value [4] is reported as “attenuated”. The “effect on the lipolytic effect of ZAG” value [5] was “completely attenuated”.

With CC(C)NCC(O)c1ccc(O)c(O)c1 (centres unmarked) [isoprenaline, reference compound] the “cyclic AMP level” value ([2]; 10 μM) was “significant increases in cyclic AMP level”.

In the case of CC(C)NCC(O)COc1cccc2ccccc12 (centres unmarked) [propanolol, propranolol], the “effect on weight loss by oral ZAG” value [6] is reported as “totally attenuates weight loss”, the “effect on ZAG-induced changes in oral glucose tolerance test” value [7] is reported as “blocked the reduction in peak plasma glucose levels” and the “effect on increased body temperature produced by ZAG” value [7] is reported as “completely attenuated”. The “effect on decrease in body weight produced by ZAG” value ([7]; ZAG 50 μg iv daily) was “completely attenuated”.

B1: LMF: lipid mobilizing factor of cancer cachexia, shown immunologically identical to ZAG (protein, UniProt P25311 21-298, looked up)
Zinc-alpha-2-glycoprotein: QENQDGRYSLTYIYTGLSKHVEDVPAFQALGSLNDLQFFRYNSKDRKSQPMGLWRQVEGMEDWKQDSQLQKAREDIFMETLKDIVEYYNDSNGSHVLQGRFGCEIENNRSSGAFWKYYYDGKDYIEFNKEIPAWVPFDPAAQITKQKWEAEPVYVQRAKAYLEEECPATLRKYLKYSKNILDRQDPPSVVVTSHQAPGEKKKLKCLAYDFYPGKIDVHWTRAGEVQEPELRGDVLHNGNGTYQSWVVVAVPPQDTAPYSCHVQHSSLAQPLVVPWEAS
For B1, the Kd [8] is given as 78 ± 4.5 nM.
